Reference: article PMC9404989, “Design and Evaluation of Short Bovine Lactoferrin-Derived Antimicrobial Peptides against Multidrug-Resistant Enterococcus faecium” (Antibiotics, 2022)
No end group written: not given here.

Columns and labels:
E. faecalis OG1RF = experiment: MIC assay, E. faecalis OG1RF; type: cell-based; details: rifampin and fusidic acid resistant
Protocol: (§1) To determine the MICs of peptides, we used the broth microdilution method described by the Clinical and Laboratory Standards Institute. We made serial dilutions of 10× concentration (10 µL) for each peptide in duplicates in 96-well plates (Cat No. 3595, Corning, New York, NY, USA). We added 90 µL of logarithmic-phase bacteria at 5 × 10^5 CFU/mL (in BHI media) to the peptides and then incubated the plates at 37 °C for 18 h. We measured the OD600 absorbance readings using the Spectra Max i3x spectrophotometer (Molecular Devices, San Jose, CA, USA) and determined the MIC as the peptide concentration that inhibits the growth of bacteria.

[1] = system: E. faecium strain C68 persister cells; experiment: Persister cell time-kill assay; type: cell-based, Enterococcus faecium
Protocol: (§2) For the generation of antibiotic-induced persister cells, we followed an established protocol. In brief, 25 mL of E. faecium strain C68 culture was grown to the stationary phase and then treated with gentamicin at 400 μg/mL for 5 h. We then disposed of the antibiotic-containing media and regrew the bacteria for another 18 h in fresh media. To produce stable persister cells, we repeated the cycle of antibiotic exposure and regrowth five times. The bacteria culture was then washed with the same volume of phosphate-buffered saline (PBS) 3× times and adjusted to 1 × 10^7 CFU/mL in PBS. For killing kinetics of the persister cells, we added 1 mL of the cell suspension to the wells of a 2 mL deep well assay block (Cat No. 3960, Corning, NY, USA) containing 10× MICs of 5L and 6L and incubated them at 37 °C, with shaking at 225 rpm. At specific times (0, 15, 30, 60, and 120 min), we collected 20 μL samples, diluted them serially, and then plated them on tryptic soy agar (TSA) (BD Difco, Franklin Lakes, NJ, USA) plates for 18 h at 37 °C for colony counting. We performed the experiments in duplicate. As a comparison, we prepared the exponential cells of E. faecium strain C68 in PBS and analyzed their killing kinetics in the same manner as described for persister cells.

[2] = system: E. faecium strain C68 exponential cells; experiment: Exponential cell time-kill assay; type: cell-based, Enterococcus faecium; details: 10× MIC, PBS
Protocol: as §2

E. faecalis V583 = experiment: microbe, parasite or virus in culture; type: cell-based; details: V583, 18 h
Protocol: as §1

E. faecalis MMH594 = experiment: microbe, parasite or virus in culture; type: cell-based; details: MMH594, 18 h
Protocol: as §1

[3] = system: E. faecium strain C68 persister and exponential cells; experiment: SYTOX Green membrane permeability assay; type: cell-based, Enterococcus faecium; details: for SYTOX membrane permeabilization of exponential cells: 16 µg/mL; for SYTOX membrane permeabilization of persister cells: peptides at 16 µg/mL, fluorescence, 1 h
Protocol: We generated E. faecium strain C68 persister cells (described in the above section) and diluted them in PBS to OD600 = 0.2. We added SYTOX Green (Molecular Probes, Life Technologies, Eugene, OR, USA) to the diluted persister suspension to a final concentration of 5 μM and incubated them for 30 min at room temperature in the dark. We added 90 µL of the dye/bacteria mixture to 10 μL of serially diluted 10× peptide concentration in a 96-well black, clear-bottom plate (Cat No. 3904, Corning, NY, USA) and recorded fluorescence on a SpectraMax i3x (Molecular Devices, San Jose, CA, USA) with excitation and emission wavelengths of 485 nm and 525 nm, respectively, for 1 h at room temperature. For comparison, we also conducted membrane permeability assays using exponential cells and followed similar protocol as described for persister cells.

HepG2 cells = experiment: Mammalian cell cytotoxicity assay (WST-1); type: cell-based, human; details: 24 h, WST-1, triplicates
Protocol: We used liver-derived HepG2 cells to evaluate AMP cytotoxicity behavior in mammalian cells based on an established protocol. We maintained the HepG2 cells at 37 °C in 5% CO2 in Dulbecco’s Modified Eagle Medium (DMEM) (Gibco, Waltham, MA, USA) supplemented with 10% fetal bovine serum (FBS) (Gibco, Gaithersburg, MD, USA) and 1% penicillin/streptomycin (Gibco, Gaithersburg, MD, USA). Next, we harvested and resuspended the cells in a fresh medium and distributed 50 µL ([…]) in a 96-well plate containing 50 µL of serially diluted AMPs in serum and antibiotic-free DMEM and incubated the plates at 37 °C in 5% CO2 for 24 h. Before the end of the incubation period (at the 20th hour), we added 10 µL of 2-(4-iodophenyl)-3-(4-nitrophenyl)-5-(2,4-disulfophenyl)-2H-tetrazolium (WST-1) (Roche, Mannheim, Germany) to each well and monitored the reduction of WST-1 at 450 nm using a SpectraMax i3x (Molecular Devices, San Jose, CA, USA). We performed the assays in triplicates and calculated the percentage of cell survival.

[4] = system: E. faecium strain C68 established biofilms; experiment: Confocal microscopy of peptide-treated established biofilms (LIVE/DEAD); type: cell-based, Enterococcus faecium; details: 10× MIC, 24 h established biofilms, 24 h treatment
Protocol: We prepared exponential cultures of E. faecium strain C68 (adjusted to 1 × 10^6 CFU/mL) in BHI media (supplemented with 0.2% glucose) from overnight grown cultures. To establish biofilms, we added 1 mL of the bacterial culture to the chambers of cuvettes (borosilicate cover glass, Nunc Cat. No. 155380) and maintained them at 37 °C for 24 h under static conditions. We carefully removed the media from the wells after incubation and then washed the wells with PBS (Gibco, MD, USA) to remove loosely attached planktonic cells. We treated the established biofilms in each well with 100 µL of serially diluted 10× MIC peptide solution (5L and 6L) followed by the addition of 900 μL of BHI media (supplemented with 0.2% glucose) and incubated the cuvettes for an additional 24 h at 37 °C. After incubation, we washed the cuvettes carefully with PBS (Gibco, MD, USA) to remove the planktonic cells and stained the biofilms with 10 µL of LIVE/DEAD kit (Molecular Probes, Life Technologies, Eugene, OR, USA) according to the manufacturer’s instructions. Finally, we visualized the biofilms using a confocal microscope (Zeiss 880) and processed the data via Zen 2010 software (Carl Zeiss, Jena, Germany).

| Substance | MIC E. faecalis OG1RF (E. faecalis OG1RF) [µg/mL] | reduction of viable persister cells ([1]; 10× MIC (40 µg/mL), 1 × 10^7 CFU, PBS, within 120 min) [logs] | time to eliminate all 10^7 CFU of exponential cells [2] [min] | MIC E. faecalis V583 (E. faecalis V583) [µg/mL] | MIC E. faecalis MMH594 (E. faecalis MMH594) [µg/mL] | SYTOX membrane permeabilization of exponential cells [3] | SYTOX membrane permeabilization of persister cells [3] | concentration without cell death in HepG2 cells (HepG2 cells) [µg/mL] | killing of bacteria inside biofilms (confocal, LIVE/DEAD) [4] | time to eliminate all persister cells ([1]; 40 µg/mL, 1 × 10^7 persister cells) [min] |
| --- | --- | --- | --- | --- | --- | --- | --- | --- | --- | --- |
| RRWLWLRRWLWR-NH2 [Peptide 5L] | > 32 | 3 | 120 | > 32 | > 32 | enhanced membrane permeabilization | time-dependent fluorescent increment | ≥ 128 | killed most of the bacteria inside the biofilms |  |
| RRWLWRLRWLWR-NH2 [Peptide 6L] | > 32 |  | 60 | > 32 | > 32 | enhanced membrane permeabilization | time-dependent fluorescent increment | ≥ 128 | killed most of the bacteria inside the biofilms | ≤ 60 |
